The source of these data is patent US12662469B2 (SIRONAX LTD, priority 2018, dated 2026).

The pEC50 is −log10 of the EC50, conventionally taken in molar units.

pEC50: −log10 of the molar value.

One assay concerns Cell Necrosis. Description: Cell necrosis assay / cell viability assay (necrosis inhibitor activity). The settings on record: necrosis inhibitor activity; EC data for 14-191 extrapolated; read-out: EC50. It is filed as cell-based.
For the compound `O=C(N1CC(Oc2ccc(=O)[nH]c2)C1)N1N=CCC1c1cc(F)cc(F)c1` (stereo not drawn) [Compound 186], the pEC50 is 6.00 to 9.00.
Same read-out and setting: then `O=C(N1CC(Cc2ccc(F)cc2F)C1)N1N=CCC1c1cccc(F)c1` (stereo not drawn) [Compound 53, (3-(2,4-difluorobenzyl)azetidin-1-yl)(5-(3-fluorophenyl)-4,5-dihydro-1H-pyrazol-1-yl)methanone], with 6.00 to 9.00; and `O=C(N1CC(Oc2nc3[nH]c(=O)ccc3s2)C1)N1N=CCC1c1cc(F)cc(F)c1` (stereo not drawn) [Compound 179], with 6.00 to 9.00.
On the same count and under the same terms, as for `N#Cc1csc(OC2CN(C(=O)N3N=CCC3c3cc(F)cc(F)c3)C2)n1` (stereo not drawn) [Compound 131, 2-((1-(5-(3,5-difluorophenyl)-4,5-dihydro-1H-pyrazole-1-carbonyl)azetidin-3-yl)oxy)thiazole-4-carbonitrile], the figure is 6.00 to 9.00; as for `O=C(N1CC(Oc2cccc(F)c2)C1)N1N=CCC1c1ccccc1` (stereo not drawn) [Compound 61, (3-(3-fluorophenoxy)azetidin-1-yl)(5-phenyl-4,5-dihydro-1H-pyrazol-1-yl)methanone], 6.00 to 9.00.
On the same count and under the same terms, then `O=C(N1CC(Oc2ccc(F)cc2F)C1)N1N=CCC1c1cccc(F)c1` (stereo not drawn) [Compound 75, (3-(2,4-difluorophenoxy)azetidin-1-yl)(5-(3-fluorophenyl)-4,5-dihydro-1H-pyrazol-1-yl)methanone], with 6.00 to 9.00.
Consider `NC(=O)c1cc(OC2CN(C(=O)N3N=CCC3c3cc(F)cc(F)c3)C2)ccc1Cl` (stereo not drawn) [Compound 158], for which the negative-log EC50 (pEC50) was 6.00 to 9.00.
The same measure, in the same setting: then `CNC(=O)c1nc(OC2CN(C(=O)N3N=CCC3c3cc(F)cc(F)c3)C2)oc1F` (stereo not drawn) [Compound 172], with 6.00 to 9.00; and `COc1cccc(CC2CN(C(=O)N3N=CCC3c3ccccc3)C2)c1` (stereo not drawn) [Compound 39, (3-(3-methoxybenzyl)azetidin-1-yl)(5-phenyl-4,5-dihydro-1H-pyrazol-1-yl) methanone], with 6.00 to 9.00; and `O=C(N1CCN(c2cccnn2)CC1)N1N=CCC1c1ccccc1` (stereo not drawn) [Compound 89, (5-phenyl-4,5-dihydro-1H-pyrazol-1-yl)(4-(pyridazin-3-yl)piperazin-1-yl)methanone], with 5.00 to 6.00.
On the same count and under the same terms, as for `NC(=O)c1c(F)cc(OC2CN(C(=O)N3N=CCC3c3cc(F)cc(F)c3)C2)cc1Cl` (stereo not drawn) [Compound 157], the figure is 6.00 to 9.00; as for `O=C(N1CC(=Cc2ccccc2F)C1)N1N=CCC1c1cc(F)cc(F)c1` (stereo not drawn) [Compound 56, (5-(3,5-difluorophenyl)-4,5-dihydro-1H-pyrazol-1-yl)(3-(2-fluorobenzylidene)azetidin-1-yl)methanone], 6.00 to 9.00.
Same read-out and setting: then `NC(=O)c1ccc(OC2CN(C(=O)N3N=CCC3c3cc(F)cc(F)c3)C2)cc1` (stereo not drawn) [Compound 130, 4-((1-(5-(3,5-difluorophenyl)-4,5-dihydro-1H-pyrazole-1-carbonyl)azetidin-3-yl)oxy)benzamide], with 6.00 to 9.00; and `Cc1cnc(OC2CN(C(=O)N3N=CCC3c3cc(F)cc(F)c3)C2)s1` (stereo not drawn) [Compound 176], with 6.00 to 9.00; and `O=C(N1CC(=Cc2ccccc2)C1)N1N=CCC1c1ccccc1` (stereo not drawn) [Compound 36, (3-benzylideneazetidin-1-yl)(5-phenyl-4,5-dihydro-1H-pyrazol-1-yl)methanone], with 6.00 to 9.00.
Regarding `O=C(N1CC(Oc2nc3c(=O)[nH]ccc3s2)C1)N1N=CCC1c1cc(F)cc(F)c1` (stereo not drawn) [Compound 174], the pEC50 is 6.00 to 9.00.
On the same count and under the same terms, then `O=C(N1CC(Oc2ccc(F)nc2)C1)N1N=CCC1c1ccccc1` (stereo not drawn) [Compound 73, (3-((6-fluoropyridin-3-yl)oxy)azetidin-1-yl)(5-phenyl-4,5-dihydro-1H-pyrazol-1-yl)methanone], with 6.00 to 9.00.

The same assay, now with this note: necrosis inhibitor activity; compounds outside 14-191; read-out: EC50.
For `O=C(N1CC(=Cc2ccc(F)nc2)C1)N1N=CCC1c1cncc(F)c1` (stereo not drawn) [Compound 307, (5(5-fluoropyridin-3-yl)-4,5-dihydro-H-pyrazol-1-yl)(3-((6-fluoropyridin-3-yl)methylene)azetidin-1-yl)methanone], the pEC50 is 6.00 to 9.00.
Still for that read-out and setting: then `CC(=O)N(C)c1cccc(OC2CN(C(=O)N3N=CCC3c3cc(F)cc(F)c3)C2)c1` (stereo not drawn) [Compound 230, N-(3-((1-(5-(3,5-difluorophenyl)-4,5-dihydro-1H-pyrazole-1-carbonyl)azetidin-3-yl)oxy)phenyl)-N-methylacetamide], with 6.00 to 9.00; and `O=C(N1CC(Oc2cc3[nH]nc(F)c3cc2F)C1)N1N=CCC1c1ccccc1` (stereo not drawn) [Compound 379, (3-((3,5-difluoro-1H-indazol-6-yl)oxy)azetidin-1-yl)(5-phenyl-4,5-dihydro-1H-pyrazol-1-yl)methanone], with 6.00 to 9.00; and `Cc1nnc(N2CCN(C(=O)N3N=CC[C@H]3c3cc(F)cc(F)c3)CC2)s1` [Compound 384, (S)-(5-(3,5-difluorophenyl)-4,5-dihydro-1H-pyrazol-1-yl)(4-(5-methyl-1,3,4-thiadiazol-2-yl)piperazin-1-yl)methanone], with 6.00 to 9.00.
Still for that read-out and setting: as for `O=C(N1CC(Oc2ncc(F)cc2F)C1)N1N=CCC1c1cc(F)cc(F)c1` (stereo not drawn) [Compound 210, (5-(3,5-difluorophenyl)-4,5-dihydro-1H-pyrazol-1-yl)(3-((3,5-difluoropyridin-2-yl)oxy)azetidin-1-)methanone], the figure is 6.00 to 9.00.
The same measure, in the same setting: as for `O=C1COc2cc(F)c(OC3CN(C(=O)N4N=CC[C@H]4c4cc(F)cc(F)c4)C3)cc2N1` [Compound 193, (S)-6-((1-(5-(3,5-difluorophenyl)-4,5-dihydro-1H-pyrazole-1-carbonyl)azetidin-3-yl)oxy)-7-fluoro-2H-benzo[b][1,4]oxazin-3(4H)-one], the figure is 6.00 to 9.00.
`N#CCCNc1ncc(F)c(OC2CN(C(=O)N3N=CC[C@H]3c3cc(F)cc(F)c3)C2)n1` [Compound 269, (S)-3-((4-((1-(5-(3,5-fluorophenyl)-4,5-dihydro-1H-pyrazole-1-carbonyl)azetidin-3-yl)oxy)-5-fluoropyrimidin-2-yl)amino)propanenitrile]: the negative logarithm of the EC50 (pEC50) is 6.00 to 9.00.
Regarding `O=C1COc2cc(F)c(O[C@@H]3CCN(C(=O)N4N=CC[C@H]4c4cc(F)cc(F)c4)C3)cc2N1` [Compound 196], the pEC50 is 6.00 to 9.00.
On the same count and under the same terms, as for `N#Cc1ccc(F)c(O[C@@H]2CCN(C(=O)N3N=CC[C@H]3c3cc(F)cc(F)c3)C2)c1` [Compound 341, 3-(((R)-1-((S)-5-(3,5-difluorophenyl)-4,5-dihydro-1H-pyrazole-1-carbonyl)pyrrolidin-3-yl)oxy)-4-fluorobenzonitrile], the figure is 6.00 to 9.00; as for `CN(C(=O)N1N=CCC1c1ccccc1)C1CCCCC1` (stereo not drawn) [Compound 12, N-cyclohexyl-N-methyl-5-phenyl-4,5-dihydro-1H-pyrazole-1-carboxamide], 5.00 to 6.00; as for `O=C(N1CC(Nc2ncc(F)cc2F)C1)N1N=CC[C@H]1c1cc(F)cc(F)c1` [Compound 254, (S)-(5-(3,5-difluorophenyl)-4,5-dihydro-1H-pyrazol-1-yl)(3-((3,5-difluoropyridin-2-yl)amino)azetidin-1-yl)methanone], 6.00 to 9.00.
On the same count and under the same terms, as for `COCCC1Oc2cc(F)c(OC3CN(C(=O)N4N=CC[C@H]4c4cc(F)cc(F)c4)C3)cc2N(C)C1=O` (stereo partly drawn) [Compound 247], the figure is 6.00 to 9.00; as for `O=C(N1CC(=Cc2ccc(F)cc2)C1)N1N=CCC1c1cncc(F)c1` (stereo not drawn) [Compound 309, (3-(4-fluorobenzylidene)azetidin-1-yl)(5-(5-fluoropyridin-3-yl)-4,5-dihydro-1H-pyrazol-1-yl)methanone], 6.00 to 9.00; as for `O=C1CCc2ccc(OC3CN(C(=O)N4N=CC[C@H]4c4cc(F)cc(F)c4)C3)cc2N1` [Compound 206, (S)-7-((1-(5-(3,5-difluorophenyl)-4,5-dihydro-1H-pyrazole-1-carbonyl)azetidin-3-yl)oxy)-3,4-dihydroquinolin-2(1H)-one], 6.00 to 9.00.
Same read-out and setting: then `O=C(N1CC(=Cc2cc3[nH][nH]c(=O)c3cc2F)C1)N1N=CC[C@H]1c1cc(F)cc(F)c1` [Compound 286, (S)-6-((1-(5-(3,5-difluorophenyl)-4,5-dihydro-1H-pyrazole-1-carbonyl)azetidin-3-ylidene)methyl)-5-fluoro-1H-315-indazol-3-one], with 6.00 to 9.00; and `Nc1cc(F)c(F)c(C=C2CN(C(=O)N3N=CC[C@H]3c3cc(F)cc(F)c3)C2)c1` [Compound 299, (S)-(3-(5-amino-2,3-difluorobenzylidene)azetidin-1-yl)(5-(3,5-difluorophenyl)-4,5-dihydro-1H-pyrazol-1-yl)methanone], with 6.00 to 9.00.
Consider `NC(=O)c1ccc(C=C2CN(C(=O)N3N=CC[C@H]3c3cc(F)cc(F)c3)C2)cn1` [Compound 295, (S)-5-((1-(5-(3,5-difluorophenyl)-4,5-dihydro-1H-pyrazole-1-carbonyl)azetidin-3-ylidene)methyl)picolinamide], for which the pEC50 is 6.00 to 9.00.
Same read-out and setting: as for `CC1CCCCN1C(=O)N1N=CCC1c1ccccc1` (stereo not drawn) [Compound 8, (2-methylpiperidin-1-yl)(5-phenyl-4,5-dihydro-1H-pyrazol-1-yl)methanone], the figure is 5.00 to 6.00.
For the compound `N#Cc1cc(OC2CN(C(=O)N3N=CC[C@H]3c3cc(F)cc(F)c3)C2)ncn1` [Compound 215, (S)-6-((1-(5-(3,5-difluorophenyl)-4,5-dihydro-1H-pyrazole-1-carbonyl)115zetidine-3-yl)oxy)pyrimidine-4-carbonitrile], the pEC50 was 6.00 to 9.00.
Still for that read-out and setting: then `COc1cccc(O[C@@H]2CCN(C(=O)N3N=CC[C@H]3c3cc(F)cc(F)c3)C2)n1` [Compound 356, ((S)-5-(3,5-difluorophenyl)-4,5-dihydro-1H-pyrazol-1-yl)((R)-3-((6-methoxypyridin-2-yl)oxy)pyrrolidin-1-yl)methanone], with 6.00 to 9.00; and `N#Cc1cc(F)cc([C@@H]2CC=NN2C(=O)N2CC(Oc3ccc4c(c3)NC(=O)CO4)C2)c1` [Compound 198, (S)-3-fluoro-5-(1-(3-((3-oxo-3,4-dihydro-2H-benzo[b][1,4]oxazin-6-yl)oxy)azetidine-1-carbonyl)-4,5-dihydro-1H-pyrazol-5-yl)benzonitrile], with 6.00 to 9.00.
In the case of `O=C(N1CC(Oc2ccc3cc[nH]c3c2)C1)N1N=CC[C@H]1c1cc(F)cc(F)c1` [Compound 223, (S)-(3-((1H-indol-6-yl)oxy)azetidin-1-yl)(5-(3,5-difluorophenyl)-4,5-dihydro-1H-pyrazol-1-yl)methanone], the pEC50 was 6.00 to 9.00.
